Test results from patent EP0299434B1, “High pH recovery of neutral amino acids” (GENENCOR INTERNATIONAL, INC., priority 1987, dated 1989).

Assay: solution pKa (pH at which the solubility versus pH curve changes slope)
Type: physicochemical
Text: The theoretical pKa of a neutral amino acid is a rigorously defined parameter which is independent of temperature and the presence of other components. In accordance with the present invention, the important pKa is the solution pKa which takes into account the actual characteristics of the solution. Thus, the pKa of the neutral amino acid in the actual solution from which it is desired to precipitate the amino acid must be measured. The "solution pKa" is the pH at which the solubility versus pH curve for the solution in question changes slope. For example, if the log of the concentration at saturation is plotted versus pH, two straight line portions of the curve will be noted. The intersection of these straight line portions when extended is considered to be the solution pKa of this solution under the conditions of the test. The solution pKa will depend on the other components in the solution, for example the base that might be present, the temperature and other factors.

## N[C@@H](Cc1c[nH]c2ccccc12)C(=O)O [tryptophan]
Ion exchange eluate concentrated by reverse osmosis, 37°C, ion exchange eluate concentrated by reverse osmosis (Example 4)
  pKa: ~8.9
Ion exchange eluate evaporated at 60°C, ion exchange eluate evaporated at 60°C (Example 6)
  pKa: ~8.2
Ion exchange eluate redissolved with ammonium hydroxide, 30°C, ammonia stripping
  pKa: 9
Ion exchange eluate redissolved with ammonium hydroxide, 39°C, ammonia stripping
  pKa: 8.8
Ion exchange eluate redissolved with ammonium hydroxide, 55°C, ammonia stripping
  pKa: 8.4
Saturation curve of Fig. 1
  pKa: ~9.2
